Blank lines part the entries; values can stand above or below the compound they belong to.
What was measured:
[1] = Tissue distribution (liver versus plasma and other tissues); assay type: in vivo; settings: liver relative to plasma, heart and skin, liver vs plasma, kidney, lungs, read-out: concentration in the liver relative to plasma, kidney, lungs, heart, and skin
Description: Compound I is preferentially distributed to the liver, which, without being bound by theory, would allow the compound to reach its FXR target in the liver with fewer off-target adverse effects. For example, Compound I has an approximately 20-fold higher concentration in the liver than in the plasma, kidney, lungs, heart, and skin. This trait would likely be particularly beneficial for vulnerable populations, such as children, the elderly, and people with comorbidities.

[2] = Moisture sorption analysis (MSA); assay type: physicochemical; settings: for hygroscopicity (overall, from moisture sorption data): 5% to 95% RH; for weight change (loss) between ~95% RH and ~5% RH: desorption step ~95% to ~5% RH; for weight loss upon equilibration at ~5% RH: moisture sorption; for weight change (gain) between ~5% and ~95% RH: sorption step ~5% to ~95% RH
Procedure: MSA analyses were performed using a VTI SGA-100 Vapor Sorption Analyzer. Sorption and desorption data were collected over a range of 5% to 95% relative humidity (RH) at 10% RH intervals under a nitrogen purge. Samples were not dried prior to analysis. Equilibrium criteria used for analysis were less than 0.0100% weight change in 5 minutes, with a maximum equilibration time of 3 hours if the weight criterion was not met. Data were not corrected for the initial moisture content of the samples. NaCl and PVP were used as calibration standards.

[3] = Solid form stability when stressed at high relative humidity; assay type: physicochemical; settings: ~94% RH for 10 days
Procedure: Polymorphic Form I of Compound I was obtained by slurrying of Compound I in ethyl acetate or methanol at room temperature, or in a mixture IPA:water 1:1 at ˜58° C. Additionally, Form I was obtained by slow cooling of a solution of Compound I in acetonitrile.

[4] = Slurry interconversion of polymorphic forms; assay type: physicochemical
Procedure: Slurry interconversion experiments were performed at temperatures ranging from room temperature to ˜81° C. Solvent systems used for the study were nitromethane, acetonitrile, and a THF/heptane 1:2 (v/v) mixture.

SMILES: Cn1cc(C(=O)O)c2ccc(N3CCC(OCc4c(-c5c(Cl)cccc5Cl)noc4C4CC4)CC3)cc21 [Compound I, 6-(4-((5-cyclopropyl-3-(2,6-dichlorophenyl)isoxazol-4-yl)methoxy)piperidin-1-yl)-1-methyl-1H-indole-3-carboxylic acid]
Kp [1]: ~20

SMILES: Cn1cc(C(=O)O)c2ccc(N3CCC(OCc4c(-c5c(Cl)cccc5Cl)noc4C4CC4)CC3)cc21 [Form I, 6-(4-((5-cyclopropyl-3-(2,6-dichlorophenyl)isoxazol-4-yl)methoxy)piperidin-1-yl)-1-methyl-1H-indole-3-carboxylic acid]
hygroscopicity (overall, from moisture sorption data) [2]: low hygroscopicity
weight change (loss) between ~95% RH and ~5% RH [2]: ~0.4 wt %
weight loss upon equilibration at ~5% RH [2]: ~0.1 wt %
weight change (gain) between ~5% and ~95% RH [2]: ~0.4 wt %
stability as a solid form under humidity stress [3]: remained stable

SMILES: Cn1cc(C(=O)O)c2ccc(N3CCC(OCc4c(-c5c(Cl)cccc5Cl)noc4C4CC4)CC3)cc21 [I, II, III, IV, V, VI, VII]
XRPD Result of slurry interconversion ([4]; ACN, RT, 1 day, ~5 mg each): Form II
XRPD Result of slurry interconversion ([4]; Nitromethane, RT, 3 days, ~5 mg each): Form II
XRPD Result of slurry interconversion ([4]; Nitromethane, ~78-81° C., 3 days, ~5 mg each): Form II

Second part, the compound after the results:

XRPD Result of slurry interconversion ([4]; ACN, ~66-69° C., 1 day, ~5 mg each): Form II
SMILES: Cn1cc(C(=O)O)c2ccc(N3CCC(OCc4c(-c5c(Cl)cccc5Cl)noc4C4CC4)CC3)cc21 [I, II, III, V]

hygroscopicity (overall, from moisture sorption data) [2]: low hygroscopicity
weight change (loss) between ~95% RH and ~5% RH [2]: negligible weight change
weight loss upon equilibration at ~5% RH [2]: ~0.6 wt %
weight change (gain) between ~5% and ~95% RH [2]: negligible weight change
relative stability among polymorphic forms ([4]; ambient temperature and elevated temperature up to ~81° C.): most stable form
SMILES: Cn1cc(C(=O)O)c2ccc(N3CCC(OCc4c(-c5c(Cl)cccc5Cl)noc4C4CC4)CC3)cc21 [Form II, 6-(4-((5-cyclopropyl-3-(2,6-dichlorophenyl)isoxazol-4-yl)methoxy)piperidin-1-yl)-1-methyl-1H-indole-3-carboxylic acid]

XRPD Result of slurry interconversion ([4]; THF/heptane 1:2, ~61° C., 1 day, ~15 mg each): Form II
XRPD Result of slurry interconversion ([4]; THF:heptane 1:2, RT, 1 day, ~15 mg each): Form II
SMILES: Cn1cc(C(=O)O)c2ccc(N3CCC(OCc4c(-c5c(Cl)cccc5Cl)noc4C4CC4)CC3)cc21 [I, II, VI]
